Test results from patent US20070134157A1, “Biological assay” (priority 2004, published 2007).

Assays:
Sprague Dawley rats [1] = assay: rat electrocardiogram/electrophysiology model, 20-min continuous intravenous infusion; assay type: in vivo; details: for Percent change AH / Percent change ARP / Percent change AVRP / Percent change HR / Percent change HV / Percent change MAP / Percent change PR / Percent change QRS / Percent change QT / Percent change QTc / Percent change VRP: after a 20 min infusion, ± se
Experimental: (§1) Adult, male Sprague Dawley rats (240-280 g) were used for all studies. Rats were anesthetized with a mixture of ketamine:xylazine (85 mg/kg:5 mg/kg, ip). Catheters were placed in the left femoral artery and left femoral vein for the measurement of arterial pressure and the administration of test agents, respectively. In addition, a catheter was placed in the right femoral vein to administer a continuous infusion of ketamine:xylazine (45 mg/kg/hr:1.5 mg/kg/hr). A recording/stimulating catheter was then placed in the right jugular vein and advanced to the right atrium. Two electrodes were used to obtain bipolar atrial electrogram recording, and two were used for bipolar pacing of the atria/heart. The right carotid artery was then cannulated with a second recording/stimulating catheter, and the catheter was advance into the left ventricle. Two electrodes were used to obtain bipolar ventricular and His bundle electrograms, and two were used to pace the ventricle. Needle electrodes were placed subcutaneously in the right axillary and left inguinal areas to record lead II electrocardiogram. After equilibration and baseline readings, continuous infusion of test agent or vehicle was started and readings taken at 10 min and 20 min after start of infusion. Blood samples for plasma analysis were obtained from the femoral artery catheter at 10 and 20 min after the start of the infusion. Atrial effective (ARP), ventricular effective (VRP), and AV node effective (AVRP) refractory periods determined as follows: excitation threshold was determined for the atria and ventricles, then a conditioning train of stimuli (S1, 1 ms duration) at a cycle length of 150 ms was delivered at 1×-2× threshold followed by an extrastimulus (S2, 1 ms duration) at 2× threshold. The S1—S2 coupling interval was decreased by 5 ms, then 1 ms intervals to obtain refractory periods. ARP and VRP were defined as the shortest coupling interval that permitted propagation of an atrial or ventricular extrastimulus. AVRP was defined as the shortest coupling interval that permitted the propagation of the atria extrastimulus through the AV node to elicit ventricular depolarization. In addition, PR, AH (both a measure of AV nodal conduction) and HV (a measure of His-Purkinje conduction) intervals were measured during short (10-20 sec) trains of fixed S1—S1 interval pacing of 150 ms. QT interval was obtained during sinus rhythm. […] Am J Physiol. 1998;274:H747-51) were reported. Compounds were dissolved in either saline or N,N-dimethylformamide. Intravenous infusion of test agents or vehicles was normalized to body weight.
In an extension of these studies to longer duration infusions, 3-[(dimethylamino)methyl]-6-methoxy-2-methyl-4-phenylisoquinolin-1(2H)-one hydrochloride and (2-isopropyl-5-methylcyclohexyl)(diphenyl)phosphine oxide were tested in a 20-min intravenous continuous infusion protocol. […] Plasma levels of 3-[(dimethylamino)methyl]-6-methoxy-2-methyl-4-phenylisoquinolin-1(2H)-one hydrochloride at 10 and 20 min after the start of a 0.1 mg/kg/min infusion were 3.4±0.2 μM and 2.8±0.3 μM, respectively.

[2] = plasma levels during continuous intravenous infusion; assay type: in vivo, rat; details: for concentration at 10 min / concentration at 20 min: male, Sprague Dawley, rat, plasma, intravenous; for concentration at 10 min: 10 min after start; for concentration at 20 min: 20 min after start
Experimental: as §1

Sprague Dawley rats [3] = assay: rat electrocardiogram/electrophysiology model, 5-min intravenous infusion paradigm; assay type: in vivo; details: readings immediately after the infusion, dose dependent
Experimental: as §1
Two infusion paradigms were tested with two structurally distinct Kv1.5 antagonists, 3-[(dimethylamino)methyl]-6-methoxy-2-methyl-4-phenylisoquinolin-1(2H)-one hydrochloride (described in WO 02/24655 A1) and (2-isopropyl-5-methylcyclohexyl)(diphenyl)phosphine oxide (described in U.S. Pat. No. 6,214,809 B1). In an initial shorter duration infusion paradigm, a 5-min intravenous infusion of compound or vehicle was administered with electrocardiogram/electrophysiology readings determined immediately after the infusion.

[4] = 20-min infusion, dose that produced a similar increase in VRP as the Kv1.5 antagonists
[5] = 0.1 mg/kg/min, 20-min after start of infusion
[6] = 0.1 mg/kg/min, 10 min after start of infusion
[7] = 0.2 mg/kg/min, DMF vehicle, 20-min infusion
[8] = 0.2 mg/kg/min, saline vehicle, 10-min post infusion
[9] = 0.2 mg/kg/min, saline vehicle, 20 min after start of infusion
[10] = 0.2 mg/kg/min, 10-min post infusion
[11] = 0.2 mg/kg/min, listed as (2-isopropyl-5-methylcyclohexyl)(diphenyl)phosphine oxide
[12] = dose that caused a similar decrease in blood pressure as 0.03 mg/kg/min amlodipine
[13] = doses that caused similar blood pressure lowering as higher infusion rates of amlodipine

CS(=O)(=O)Nc1ccc2c(c1)C(O)CC1(CCN(C3CCc4cc(C#N)ccc4C3)CC1)O2.Cl [Ikr blocker, N-[1′-(6-cyano-1,2,3,4-tetrahydro-2(R)-naphthalenyl)-3,4-dihydro-4(R)-hydroxyspiro[2H-1-benzopyran-2,4′-piperidin]-6-YL]-,(+)-,monohydrochloride]
Percent change AH (Sprague Dawley rats [1]; 0.0001 mg/kg/min): 2 ± 1% | Percent change ARP (Sprague Dawley rats [1]; 0.0001 mg/kg/min): 0 ± 2% | Percent change AVRP (Sprague Dawley rats [1]; 0.0001 mg/kg/min): 1 ± 2% | Percent change HR (Sprague Dawley rats [1]; 0.0001 mg/kg/min): −1 ± 5% | Percent change HV (Sprague Dawley rats [1]; 0.0001 mg/kg/min): −1 ± 1% | Percent change MAP (Sprague Dawley rats [1]; 0.0001 mg/kg/min): −7 ± 8% | Percent change PR (Sprague Dawley rats [1]; 0.0001 mg/kg/min): 2 ± 2% | Percent change QRS (Sprague Dawley rats [1]; 0.0001 mg/kg/min): 0 ± 1% | Percent change QT (Sprague Dawley rats [1]; 0.0001 mg/kg/min): 1 ± 1% | Percent change QTc (Sprague Dawley rats [1]; 0.0001 mg/kg/min): 0 ± 2% | Percent change VRP (Sprague Dawley rats [1]; 0.0001 mg/kg/min): −2 ± 1% | Percent change AH (Sprague Dawley rats [1]; 0.001 mg/kg/min): 9 ± 1% | Percent change ARP (Sprague Dawley rats [1]; 0.001 mg/kg/min): 2 ± 4% | Percent change AVRP (Sprague Dawley rats [1]; 0.001 mg/kg/min): 11 ± 1% | Percent change HR (Sprague Dawley rats [1]; 0.001 mg/kg/min): 3 ± 4% | Percent change HV (Sprague Dawley rats [1]; 0.001 mg/kg/min): −4 ± 3% | Percent change MAP (Sprague Dawley rats [1]; 0.001 mg/kg/min): −1 ± 3% | Percent change PR (Sprague Dawley rats [1]; 0.001 mg/kg/min): 8 ± 1% | Percent change QRS (Sprague Dawley rats [1]; 0.001 mg/kg/min): 3 ± 1% | Percent change QT (Sprague Dawley rats [1]; 0.001 mg/kg/min): −1 ± 1% | Percent change QTc (Sprague Dawley rats [1]; 0.001 mg/kg/min): 1 ± 1% | Percent change VRP (Sprague Dawley rats [1]; 0.001 mg/kg/min): 0 ± 1% | Percent change AH (Sprague Dawley rats [1]; 0.03 mg/kg/min): 13 ± 4% | Percent change ARP (Sprague Dawley rats [1]; 0.03 mg/kg/min): 4 ± 4% | Percent change AVRP (Sprague Dawley rats [1]; 0.03 mg/kg/min): 21 ± 3% | Percent change HR (Sprague Dawley rats [1]; 0.03 mg/kg/min): 22 ± 5% | Percent change HV (Sprague Dawley rats [1]; 0.03 mg/kg/min): 4 ± 3% | Percent change MAP (Sprague Dawley rats [1]; 0.03 mg/kg/min): 18 ± 5% | Percent change PR (Sprague Dawley rats [1]; 0.03 mg/kg/min): 9 ± 4% | Percent change QRS (Sprague Dawley rats [1]; 0.03 mg/kg/min): 0 ± 1% | Percent change QT (Sprague Dawley rats [1]; 0.03 mg/kg/min): 11 ± 3% | Percent change QTc (Sprague Dawley rats [1]; 0.03 mg/kg/min): 23 ± 5% | Percent change VRP (Sprague Dawley rats [1]; 0.03 mg/kg/min): 7 ± 2% | increase in AH interval (delay in AV node conduction) (Sprague Dawley rats [1]; [4]): ~13% | increase in AVRP (Sprague Dawley rats [1]; [4]): 21% | increase in HR (Sprague Dawley rats [1]; [4]): 22% | increase in MAP (Sprague Dawley rats [1]; [4]): 18% | ARP (Sprague Dawley rats [1]; infusion of lower doses): no change | AVRP (Sprague Dawley rats [1]; infusion of lower doses): significant changes | VRP (Sprague Dawley rats [1]; infusion of lower doses): no change | plasma concentrations [2, 4]: ~0.6 µM | plasma concentration ([2]; infusion of lower doses): 0.027 µM

CCOC(=O)C1=C(COCCN)NC(C)=C(C(=O)OC)C1c1ccccc1Cl (centres unmarked) [amlodipine]
decrease in blood pressure (Sprague Dawley rats [1]; 0.03 mg/kg/min for 20 min): −14% | decrease in blood pressure (Sprague Dawley rats [1]; higher infusion rates): 30% | increase in AV nodal conduction (Sprague Dawley rats [1]; higher infusion rates): 6% | increase in AV nodal refractoriness (Sprague Dawley rats [1]; higher infusion rates): 7%

COc1ccc2c(=O)n(C)c(CN(C)C)c(-c3ccccc3)c2c1.Cl [compound 1, 3-[(dimethylamino)methyl]-6-methoxy-2-methyl-4-phenylisoquinolin-1(2H)-one hydrochloride]
ARP (Sprague Dawley rats [1]; [5]): no change | increase in QT (Sprague Dawley rats [1]; [5]): 10% | increase in QTc (Sprague Dawley rats [1]; [5]): 16% | increase in VRP (Sprague Dawley rats [1]; [5]): 5% | increase in heart rate (Sprague Dawley rats [1]; [5]): 5% | ARP (Sprague Dawley rats [1]; [6]): no change | QT (Sprague Dawley rats [1]; [6]): slight increase | QTc (Sprague Dawley rats [1]; [6]): slight increase | VRP (Sprague Dawley rats [1]; [6]): no change | increase in ARP (Sprague Dawley rats [1]; [7]): 8% | increase in QT (Sprague Dawley rats [1]; [7]): 11% | increase in VRP (Sprague Dawley rats [1]; [7]): 13% | Percent change AH (Sprague Dawley rats [1]; 0.2 mg/kg/min): 5 ± 1% | Percent change ARP (Sprague Dawley rats [1]; 0.2 mg/kg/min): 5 ± 3% | Percent change AVRP (Sprague Dawley rats [1]; 0.2 mg/kg/min): 4 ± 2% | Percent change HR (Sprague Dawley rats [1]; 0.2 mg/kg/min): −1 ± 4% | Percent change HV (Sprague Dawley rats [1]; 0.2 mg/kg/min): 0 ± 3% | Percent change MAP (Sprague Dawley rats [1]; 0.2 mg/kg/min): 2 ± 2% | Percent change PR (Sprague Dawley rats [1]; 0.2 mg/kg/min): 3 ± 1% | Percent change QRS (Sprague Dawley rats [1]; 0.2 mg/kg/min): 0 ± 0% | Percent change QT (Sprague Dawley rats [1]; 0.2 mg/kg/min): 12 ± 2% | Percent change QTc (Sprague Dawley rats [1]; 0.2 mg/kg/min): 11 ± 2% | Percent change VRP (Sprague Dawley rats [1]; 0.2 mg/kg/min): 13 ± 1% | QT (Sprague Dawley rats [1]; [8]): significant increases | VRP (Sprague Dawley rats [1]; [8]): significant increases | change in RR interval (Sprague Dawley rats [1]; [9]): −17% | heart rate (Sprague Dawley rats [1]; [9]): significant increases | increase in ARP (Sprague Dawley rats [1]; [9]): 12% | increase in QT interval (Sprague Dawley rats [1]; [9]): 14% | increase in QTc (Sprague Dawley rats [1]; [9]): 24% | increase in VRP (Sprague Dawley rats [1]; [9]): 11% | plasma levels, saline group versus DMF group ([2]; 0.2 mg/kg/min, dissolved in saline or DMF): similar | concentration at 10 min ([2]; 0.1 mg/kg/min infusion): 3.4 ± 0.2 µM | concentration at 20 min ([2]; 0.1 mg/kg/min infusion): 2.8 ± 0.3 µM | concentration at 10 min ([2]; 0.2 mg/kg/min infusion): 6.3 ± 0.5 µM | concentration at 20 min ([2]; 0.2 mg/kg/min infusion): 5.5 ± 0.2 µM | ARP (Sprague Dawley rats [3]): increases | QT interval (Sprague Dawley rats [3]): increases | VRP (Sprague Dawley rats [3]): increases

CC1CCC(C(C)C)C(P(=O)(c2ccccc2)c2ccccc2)C1 (centres unmarked) [compound 2, (2-isopropyl-5-methylcyclohexyl)(diphenyl)phosphine oxide]
ARP (Sprague Dawley rats [1]; [10]): significant increases | QT (Sprague Dawley rats [1]; [10]): significant increases | VRP (Sprague Dawley rats [1]; [10]): significant increases | Percent change AH (Sprague Dawley rats [1]; 0.2 mg/kg/min): −1 ± 1% | Percent change ARP (Sprague Dawley rats [1]; 0.2 mg/kg/min): 26 ± 4% | Percent change AVRP (Sprague Dawley rats [1]; 0.2 mg/kg/min): −1 ± 1% | Percent change HR (Sprague Dawley rats [1]; 0.2 mg/kg/min): 8 ± 6% | Percent change HV (Sprague Dawley rats [1]; 0.2 mg/kg/min): −8 ± 3% | Percent change MAP (Sprague Dawley rats [1]; 0.2 mg/kg/min): 4 ± 4% | Percent change PR (Sprague Dawley rats [1]; 0.2 mg/kg/min): −3 ± 1% | Percent change QRS (Sprague Dawley rats [1]; 0.2 mg/kg/min): −3 ± 4% | Percent change QT (Sprague Dawley rats [1]; 0.2 mg/kg/min): 27 ± 7% | Percent change QTc (Sprague Dawley rats [1]; 0.2 mg/kg/min): 33 ± 8% | Percent change VRP (Sprague Dawley rats [1]; 0.2 mg/kg/min): 22 ± 5% | Percent change ARP (Sprague Dawley rats [1]; [11]): 24% | Percent change QT (Sprague Dawley rats [1]; [11]): 27% | Percent change QTc (Sprague Dawley rats [1]; [11]): 33% | Percent change VRP (Sprague Dawley rats [1]; [11]): 22% | ARP (Sprague Dawley rats [3]): increases | QT interval (Sprague Dawley rats [3]): increases | VRP (Sprague Dawley rats [3]): increases

COc1ccc([C@@H]2Sc3ccccc3N(CCN(C)C)C(=O)[C@@H]2OC(C)=O)cc1 [diltiazem]
decrease in heart rate (Sprague Dawley rats [1]; [12]): 12% | increase in AV nodal conduction (Sprague Dawley rats [1]; [12]): 9% | increase in AV nodal refractoriness (Sprague Dawley rats [1]; [12]): 10% | blood pressure lowering (Sprague Dawley rats [1]; [13]): 23% | increase in AV nodal conduction (Sprague Dawley rats [1]; [13]): 15% | increase in AV nodal refractoriness (Sprague Dawley rats [1]; [13]): 19%

CCN(CC)CCNC(=O)c1ccc(N)cc1 [procainamide]
HV interval (Sprague Dawley rats [1]; infusion at increasing rates): dose-dependent increases | QRS interval (Sprague Dawley rats [1]; infusion at increasing rates): dose-dependent increases | blood pressure (Sprague Dawley rats [1]; infusion at increasing rates): without having significant effects | heart rate (Sprague Dawley rats [1]; infusion at increasing rates): without having significant effects
